Source: US20260234141A1, “COMPOUNDS AND COMPOSITIONS USEFUL AS DEGRADERS OF MK2 KINASE” (Celgene Corporation, priority 2023, published 2026)

Assays:
MK2 = molecular target: T1, MK2 (Homo sapiens, UniProt P49137); experiment: MK2 degradation assay in MK2 overexpressed HiBiT-tagged cell line; assay type: cell-based; details: cells stably expressing HiBiT-tagged MK2 (overexpressed), overnight incubation, read-out: HiBiT MK2 OE EC50
T1 construct: expressed in transfected cells
Protocol: A compound was dispensed into a white 384-well tissue-culture treated plate using an acoustic liquid handler. Dilutions were based on a 25 μL assay volume in duplicate 10 point 3-fold serial dilutions starting with a 10 μM dose. Negative control wells containing only 0.2% DMSO were also included to calculate 100% signal. All wells were backfilled to a final DMSO concentration of 0.2% to ensure DMSO uniformity across wells. Cells stably expressing HiBiT-tagged protein of interest were then washed, trypsinized, and counted.
These cells were then resuspended in fresh medium to give the proper concentration. This was done so that when cells were plated at a 25 μL seeding volume the assay would be conducted within the linear range from optimization of cell-based HiBiT assay. Following the above procedure, 25 μL of cells expressing HiBiT-tagged protein of interest were dispensed per well. Cells were then seeded into the 384-well plate that was pre-spotted with compounds. The resulting cells were incubated overnight at 37° C./5% CO2.
The 384-well plates were then removed from the incubator and left at room temperature for 30 min. The Nano-Glo HiBiT Lytic Detection Reagent was prepared according to manufacturer's instructions. 25 μL of Nano-Glo HiBiT Lytic Detection Reagent were added per well of a 384-well plate. The resulting plates were incubates for 30 min at room temperature. Luminescence signal was then read using a plate reader.
All luminescence values were normalized to the DMSO control wells. The average value of the DMSO control wells was set to equal 100% of the relative HiBiT-tagged target protein levels.
The luminescence values were plotted using a graphing software. Compound concentration was plotted on the x-axis and the corresponding relative protein of interest levels on the y-axis. Graphing software was used to determine the EC50 value (the half-maximum effective concentration) of a compound for the degradation of the HiBiT-tagged substrate. The software used a four-parameter logistic model (sigmoidal dose-response model) (FIT=(A+{(B−A)/1+[(C/x)^D]})) where C was the inflection point (EC50), D was the […], and A and B were the low and high limits of the fit, respectively) to calculate the EC50. The Ymin was calculated by determining the lowest percentage of target protein remaining following compound treatment.

[1] = molecular target: T2, p38a activated, mitogen-activated protein kinase-activated protein kinase 2 (MAPKAP-K2 or MK2) enzyme (Homo sapiens, UniProt P49137); experiment: MK2 OMNIA biochemical assay (AssayQuant continuous-read kinase assay); details: [MK-2]=0.05 nM, [ATP]=100 μM, [AQT0425]=10 μM
T2 construct: purchased Invitrogen PV3317
T2 sequence (P49137 whole entry): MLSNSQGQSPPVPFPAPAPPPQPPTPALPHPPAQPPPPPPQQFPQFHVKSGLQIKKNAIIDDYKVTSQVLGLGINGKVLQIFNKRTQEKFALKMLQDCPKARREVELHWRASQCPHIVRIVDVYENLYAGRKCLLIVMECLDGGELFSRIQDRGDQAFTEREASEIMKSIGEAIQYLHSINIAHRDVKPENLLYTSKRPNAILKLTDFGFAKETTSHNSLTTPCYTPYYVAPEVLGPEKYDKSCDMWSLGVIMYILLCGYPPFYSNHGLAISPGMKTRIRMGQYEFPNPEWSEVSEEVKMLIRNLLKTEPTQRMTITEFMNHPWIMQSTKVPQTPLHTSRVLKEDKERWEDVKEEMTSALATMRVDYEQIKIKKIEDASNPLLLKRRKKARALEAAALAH
Protocol: The protocol below describes a continuous-read kinase assay optimized to measure potency of compounds against p38a activated, mitogen-activated protein kinase-activated protein kinase 2 (MAPKAP-K2 or MK2) enzyme.
A 1.25× stock solution of MK2 (PV3317, from Invitrogen) and a 5× stock solution of ATP and Sox conjugated peptide substrate, AQT0425 (CSKS-AQT0425B, from AssayQuant Technologies), were prepared in 1× kinase reaction buffer consisting of 50 mM HEPES, pH 7.5, 0.01% Brij-35, 0.55 mM EGTA, 10 mM MgCl2 and 1 mM DTT.
10 μL of the ATP and substrate solution mix was added to a Corning (3574) 384-well, white, non-binding surface microtiter plate containing […] of serially diluted test compounds prepared in DMSO. The reactions were started with the addition of 40 μL of the enzyme solution and monitored every 71 seconds for 240 min at λex 360/λem 485 in a Synergy H4 plate reader from BioTek at room temperature.
The initial linear portions of the net progress curves were fit according to a linear equation to yield the slope and percentage of inhibition (% inhibition) at each compound concentration. The net progress curves obtained during the entirety of reactions were also fit according to an ascending single-exponential equation (Eq. 1) to yield Vobs values at each compound concentration. Plots of % Inhibition versus degrader concentrations were fit according to a dose-response equation (Eq. 2) to generate IC50 and Hill slope values while plots of Vobs versus degrader concentration were fit according to Equation 3 (Eq. 3) to generate apparent Kinact values using the GraphPad PRISM software.
where F is the fluorescence intensity from the plate reader, V0 is a constant reflecting the relationship between the instrument readout and product concentration, t is time, e is Euler's number, and Vobs is the observed inactivation rate constant.
where % Inhibition is percentage of inhibition, IC50 is half maximal inhibitory concentration, [I] is the degraders concentration, and n is the Hill slope.
where kobs is the observed inactivation rate constant, Kinact is the apparent inactivation rate constant, KI is the apparent inhibition constant, and [I] is the degrader concentration.

T1 sequence (P49137 whole entry): as above

Row | DC50 (MK2) | IC50 [1] | Compound
1 | 101 to 500 nM | 151 to 500 nM | O=C1CCC(c2cccc(N3CCN(CC[C@H]4CC[C@H](NC(=O)c5ccc(-c6cc(-c7cc8c([nH]7)CCNC8=O)ccn6)c(F)c5)CC4)CC3)c2)C(=O)N1 (stereo partly drawn) [Example 1.9, N-(trans-4-(2-(4-(3-(2,6-Dioxopiperidin-3-yl)phenyl)piperazin-1-yl)ethyl)cyclohexyl)-3-fluoro-4-(4-(4-oxo-4,5,6,7-tetrahydro-1H-pyrrolo[3,2-c]pyridin-2-yl)pyridin-2-yl)benzamide]
2 | < 10 nM | < 150 nM | Cn1nc(C2CCC(=O)NC2=O)c2ccc(N3CCN(C[C@H]4CC[C@H](NC(=O)c5ccc(-c6cc(-c7cc8c([nH]7)CCNC8=O)ccn6)c(F)c5)CC4)CC3)cc21 (stereo partly drawn) [Example 1.5, N-[trans-4-[[4-[3-(2,6-dioxo-3-piperidyl)-1-methyl-indazol-6-yl]piperazin-1-yl]methyl]cyclohexyl]-3-fluoro-4-[4-(4-oxo-1,5,6,7-tetrahydropyrrolo[3,2-c]pyridin-2-yl)-2-pyridyl]benzamide]
3 | 10 to 100 nM | 151 to 500 nM | O=C1CCC(c2ccc(N3CCN(C[C@H]4CC[C@H](NC(=O)c5ccc(-c6cc(-c7cc8c([nH]7)CCNC8=O)ccn6)c(F)c5)CC4)CC3)cc2)C(=O)N1 (stereo partly drawn) [Example 1.6, N-(trans-4-((4-(4-(2,6-Dioxopiperidin-3-yl)phenyl)piperazin-1-yl)methyl)cyclohexyl)-3-fluoro-4-(4-(4-oxo-4,5,6,7-tetrahydro-1H-pyrrolo[3,2-c]pyridin-2-yl)pyridin-2-yl)benzamide]
4 | < 10 nM | 501 to 1000 nM | Cn1nc(C2CCC(=O)NC2=O)c2cccc(N3CCN(CCN4CCN(c5ccc(-c6cc(-c7cc8c([nH]7)CCNC8=O)ccn6)c(F)c5)CC4)CC3)c21 (stereo not drawn) [Example 1.13, 3-(7-(4-(2-(4-(3-Fluoro-4-(4-(4-oxo-4,5,6,7-tetrahydro-1H-pyrrolo[3,2-c]pyridin-2-yl)pyridin-2-yl)phenyl)piperazin-1-yl)ethyl)piperazin-1-yl)-1-methyl-1H-indazol-3-yl)piperidine-2,6-dione]
5 | 101 to 500 nM | < 150 nM | Cn1nc(C2CCC(=O)NC2=O)c2ccc(N3CCN(CCN4CCN(c5cccc(-c6cc(-c7cc8c([nH]7)CCNC8=O)ccn6)c5)CC4)CC3)cc21 (stereo not drawn) [Example 1.11, 3-(1-Methyl-6-(4-(2-(4-(3-(4-(4-oxo-4,5,6,7-tetrahydro-1H-pyrrolo[3,2-c]pyridin-2-yl)pyridin-2-yl)phenyl)piperazin-1-yl)ethyl)piperazin-1-yl)-1H-indazol-3-yl)piperidine-2,6-dione]
6 | 10 to 100 nM | 151 to 500 nM | O=C1CCC(c2cccc(N3CCN(C[C@H]4CC[C@H](NC(=O)c5ccc(-c6cc(-c7cc8c([nH]7)CCNC8=O)ccn6)c(F)c5)CC4)CC3)c2)C(=O)N1 (stereo partly drawn) [Example 1.7, N-(trans-4-((4-(3-(2,6-Dioxopiperidin-3-yl)phenyl)piperazin-1-yl)methyl)cyclohexyl)-3-fluoro-4-(4-(4-oxo-4,5,6,7-tetrahydro-1H-pyrrolo[3,2-c]pyridin-2-yl)pyridin-2-yl)benzamide]
7 | 10 to 100 nM | 501 to 1000 nM | O=C1CCC(c2ccc(N3CCN(CC[C@H]4CC[C@H](NC(=O)c5ccc(-c6cc(-c7cc8c([nH]7)CCNC8=O)ccn6)c(F)c5)CC4)CC3)cc2)C(=O)N1 (stereo partly drawn) [Example 1.10, N-(trans-4-(2-(4-(4-(2,6-Dioxopiperidin-3-yl)phenyl)piperazin-1-yl)ethyl)cyclohexyl)-3-fluoro-4-(4-(4-oxo-4,5,6,7-tetrahydro-1H-pyrrolo[3,2-c]pyridin-2-yl)pyridin-2-yl)benzamide]
8 | < 10 nM | 501 to 1000 nM | Cn1nc(C2CCC(=O)NC2=O)c2ccc(N3CCN(CC[C@H]4CC[C@H](NC(=O)c5ccc(-c6cc(-c7cc8c([nH]7)CCNC8=O)ccn6)c(F)c5)CC4)CC3)cc21 (stereo partly drawn) [Example 1.8, N-(trans-4-(2-(4-(3-(2,6-Dioxopiperidin-3-yl)-1-methyl-1H-indazol-6-yl)piperazin-1-yl)ethyl)cyclohexyl)-3-fluoro-4-(4-(4-oxo-4,5,6,7-tetrahydro-1H-pyrrolo[3,2-c]pyridin-2-yl)pyridin-2-yl)benzamide]
9 | > 500 nM | 151 to 500 nM | O=C1CCC(c2ccc(N3CCN(CCN4CCN(c5cccc(-c6cc(-c7cc8c([nH]7)CCNC8=O)ccn6)c5)CC4)CC3)cc2)C(=O)N1 (stereo not drawn) [Example 1.12, 3-(4-(4-(2-(4-(3-(4-(4-Oxo-4,5,6,7-tetrahydro-1H-pyrrolo[3,2-c]pyridin-2-yl)pyridin-2-yl)phenyl)piperazin-1-yl)ethyl)piperazin-1-yl)phenyl)piperidine-2,6-dione]
